{"source": "patent US20250195469A1", "about": "“COMPANION DIAGNOSTICS AND STRATEGIES FOR TREATMENT WITH AN ARYL HYDROCARBON RECEPTOR AGONIST COMPOUND” (AZORA THERAPEUTICS, INC., priority 2022, published 2025)", "key": {"AhR": {"molecular_target": "T1, AhR (Homo sapiens, UniProt P35869)", "T1 construct": "takes a biopsy of the treated skin from this treated spot; from tissue; host or cells: human skin biopsy, epidermal cells", "T1 sequence (P35869 11-848)": "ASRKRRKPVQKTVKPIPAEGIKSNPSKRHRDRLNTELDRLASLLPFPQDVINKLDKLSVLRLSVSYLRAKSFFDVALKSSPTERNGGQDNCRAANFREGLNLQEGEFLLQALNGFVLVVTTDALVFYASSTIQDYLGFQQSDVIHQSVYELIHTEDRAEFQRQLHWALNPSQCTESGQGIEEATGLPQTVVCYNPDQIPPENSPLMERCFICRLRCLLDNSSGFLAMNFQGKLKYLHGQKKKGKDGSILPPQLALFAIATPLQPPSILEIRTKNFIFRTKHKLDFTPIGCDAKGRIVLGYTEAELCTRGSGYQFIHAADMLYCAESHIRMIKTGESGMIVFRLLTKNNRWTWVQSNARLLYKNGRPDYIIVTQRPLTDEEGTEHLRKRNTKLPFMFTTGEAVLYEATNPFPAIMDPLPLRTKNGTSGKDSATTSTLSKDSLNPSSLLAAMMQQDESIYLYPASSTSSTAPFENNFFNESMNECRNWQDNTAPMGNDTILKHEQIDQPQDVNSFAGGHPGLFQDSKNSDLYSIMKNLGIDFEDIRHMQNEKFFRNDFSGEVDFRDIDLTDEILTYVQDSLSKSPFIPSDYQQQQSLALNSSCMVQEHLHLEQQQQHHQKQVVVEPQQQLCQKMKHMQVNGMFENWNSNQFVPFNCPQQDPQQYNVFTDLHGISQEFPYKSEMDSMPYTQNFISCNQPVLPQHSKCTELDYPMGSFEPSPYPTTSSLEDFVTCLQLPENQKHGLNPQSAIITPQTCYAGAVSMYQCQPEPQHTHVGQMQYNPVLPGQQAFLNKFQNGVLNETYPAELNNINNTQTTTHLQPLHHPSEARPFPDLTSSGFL", "assay": "Inhaled AhR antagonist combined with indirubin therapy", "assay_type": "in vivo", "conditions": "two weeks, with nanoparticulate indirubin", "description": "During the course of therapy with a nanoparticulate form of synthetic indirubin for the treatment of gastritis, a patient complains of ad adverse event, in this case shortness of breath and difficulty doing physical exercise. The patient is responding well to therapy but the doctor is concerned about possible development of additional PAH-like symptoms. The doctor maintains the indirubin therapy but prescribes the patient an inhalable AhR antagonist, in this case inhaled 1-Methyl-N-[2-methyl-4-[2-(2-methylphenyl)diazenyl]phenyl-1H-pyrazole-5-carboxamide (CH223191) that is designed to reduce AhR signaling in the lung epithelium."}, "PBMCs": {"system": "PBMCs", "assay": "EROD activity of PBMCs stimulated with AhR agonist", "assay_type": "cell-based, human", "conditions": "patient PBMCs, 24 hours, compared to healthy normal PBMCs", "experimental": "Prior to starting therapy with a topical AhR agonist for the treatment of pustular psoriasis, a blood sample is collected. PBMCs are processed and sent out fresh for stimulation with and without the AhR agonist FICZ. After 24 hours, EROD activity is measured. […] The ratio of stimulated to unstimulated EROD activity may be indicative of baseline AhR activity and responsiveness to AhR therapy. […] Based on the data, the patient's dermatologist prescribes the topical AhR agonist for the treatment of pustular psoriasis."}, "guinea pigs": {"system": "guinea pigs", "conditions": "cited from earlier work"}, "mice": {"system": "mice", "conditions": "chronic dosing, only starting after 15 days of exposure; cited from earlier work"}, "hamsters": {"system": "hamsters", "conditions": "cited from earlier work"}, "ALT and AST": {"system": "ALT and AST", "assay": "Liver enzymes after indigo modified release tablet, with or without lead in dose", "assay_type": "in vivo, human", "experimental": "As such, a product label identified a clinical regiment whereby a lead in dose of 5 mg indigo is administered once daily for 2 consecutive days prior to beginning the 50 mg therapeutic dose."}, "[1]": {"experimental": "A patient with pouchitis is being treated with an oral suspension containing 10 mg indirubin twice daily. Plasma samples are taken weekly during the first 6 weeks of therapy and sent out for PK analysis for indirubin levels. […] The physician reduces the dose to 2.5 mg once per day."}, "CYP1A1": {"system": "CYP1A1", "experimental": "(§1) A patient with Crohn's disease is given 50 mg of indirubin in an immediate release tablet once daily. A diagnostic is set to evaluate the mRNA levels of both CYP1A1 and CYP1A2 in the blood using RT-PCR of peripheral blood mononuclear cell mRNA every two weeks."}, "CYP1A2": {"system": "CYP1A2", "experimental": "as §1"}, "[2]": {"system": "relapsing-remitting multiple sclerosis patients", "conditions": "low dose (0.6 mg/day); cited from earlier work"}, "[3]": {"assay": "Echocardiogram monitoring during linomide therapy (REMS)", "assay_type": "in vivo, human", "conditions": "oral tablet, after 6 months", "description": "Based on the label of an orally administered tablet containing linomide, a patient must enroll in a risk evaluation and mitigation strategy (REMS). In the case of this drug, patients must comply with ongoing echocardiogram monitoring requirements. […] The prescribing physician evaluates the echocardiogram an decides the patient should be discontinued. The physician passes this information along to the REMS program by logging the data into a secure server. Subsequently the server alerts the patient and the prescribing pharmacy that the patient is no longer eligible to refill their linomide tablet prescription."}, "[4]": {"system": "multiple sclerosis patients", "conditions": "Phase 3; cited from earlier work"}, "[5]": {"assay": "AhR agonist metabolism in blood microsomes, AhR-luciferase reporter readout", "assay_type": "in vitro ADME, human", "conditions": "10 nM, 24 hours", "experimental": "Prior to beginning therapy with oral meisoindigo for the treatment of rheumatoid arthritis, a physician orders a diagnostic to assess ability of the subject to adequately metabolize meisoindigo. Blood microsomes are extracted from the subject and incubated in medium containing 10 nM meisoindigo for 24 hours. The microsomes are removed via ultra-centrifugation and the remaining medium is added to a reporter cell line (such as product IB06001 sold by Indigo Biosciences) that expresses luciferase behind the promoter for human CYP1A1 and which can detect AhR agonist activity. […] Based on the results of this diagnostic, the physician believes the patient has a defect making them a poor metabolizer of meisoindigo and recommends against the use of meisoindigo due to the possibility of development of adverse events."}, "[6]": {"assay": "Headaches with delayed release indirubin, omeprazole lead in dose", "conditions": "20 mg delayed-release capsule before delayed release indirubin, first week"}, "[7]": {"system": "plaque psoriasis patients", "conditions": "phase 3, plaque psoriasis patients; cited from earlier work"}, "[8]": {"conditions": "50 mg immediate release tablet once daily, after two weeks"}, "[9]": {"conditions": "two weeks after reduction to 10 mg every other day"}}, "note": "Like-named read-outs stand apart in the source and are kept apart here.", "data": [{"molecule": "Cc1ccccc1N=Nc1ccc(NC(=O)c2ccnn2C)c(C)c1", "note": "[CH223191]", "values": [{"measurement": "shortness of breath after combination therapy", "setting": "AhR", "result": "no longer has shortness of breath"}]}, {"molecule": "O=Cc1c2c(cc3c1=Nc1ccccc1-3)=Nc1ccccc1-2", "note": "[FICZ, 6-formylindolo[3,2−b]carbazole]", "values": [{"measurement": "EROD activity after stimulation", "setting": "PBMCs", "result": "high EROD activity"}]}, {"molecule": "Clc1cc2c(cc1Cl)Oc1cc(Cl)c(Cl)cc1O2", "note": "[TCDD, 2,3,7,8-tetrachlorodibenzo-p-dioxin]", "values": [{"measurement": "LD50", "setting": "guinea pigs", "result": 1, "unit": "µg/kg"}, {"measurement": "mean arterial blood pressure", "setting": "mice", "result": "increased"}, {"measurement": "LD50", "setting": "hamsters", "result": "over 5000 μg/kg"}]}, {"molecule": "O=C1/C(=C2\\Nc3ccccc3C2=O)Nc2ccccc21", "note": "[indigo]", "values": [{"measurement": "patients with the ALT and AST increase", "setting": "ALT and AST; 50 mg twice daily modified release tablet, 2 days", "result": 50, "unit": "%"}, {"measurement": "increase in ALT and AST", "setting": "ALT and AST; 50 mg twice daily modified release tablet, 2 days following administration", "result": 5, "unit": "×"}, {"measurement": "changes in ALT or AST levels", "setting": "ALT and AST; lead in dose 5 mg once daily for 2 days before 50 mg therapeutic dose, 2 days following therapeutic dosing", "result": "did not produce any notable changes"}]}, {"molecule": "O=C1Nc2ccccc2/C1=C1/Nc2ccccc2C1=O", "note": "[indirubin]", "values": [{"measurement": "plasma indirubin level", "setting": "[1]; week 1, oral suspension 10 mg twice daily", "result": 5, "unit": "ng/mL"}, {"measurement": "plasma indirubin level", "setting": "[1]; week 2, oral suspension 10 mg twice daily", "result": 25, "unit": "ng/mL"}, {"measurement": "plasma indirubin level", "setting": "[1]; week 3, 2.5 mg once per day", "result": 2, "unit": "ng/mL"}, {"measurement": "plasma indirubin level", "setting": "[1]; week 4, 2.5 mg once per day", "result": 3, "unit": "ng/mL"}, {"measurement": "plasma indirubin level", "setting": "[1]; week 5, 2.5 mg once per day", "result": 2, "unit": "ng/mL"}, {"measurement": "plasma indirubin level", "setting": "[1]; week 6, 2.5 mg once per day", "result": 3, "unit": "ng/mL"}, {"measurement": "increase of CYP1A1 mRNA in PBMCs", "setting": "CYP1A1; [8]", "result": 12, "unit": "×"}, {"measurement": "increase of CYP1A1 mRNA in PBMCs compared to baseline", "setting": "CYP1A1; [9]", "result": 15, "unit": "×"}, {"measurement": "increase of CYP1A2 mRNA in PBMCs", "setting": "CYP1A2; [8]", "result": 3, "unit": "×"}, {"measurement": "increase of CYP1A2 mRNA in PBMCs compared to baseline", "setting": "CYP1A2; [9]", "result": 6, "unit": "×"}]}, {"molecule": "CCN(C(=O)c1c(O)c2c(Cl)cccc2n(C)c1=O)c1ccccc1", "note": "[laquinimod]", "values": [{"measurement": "trial's primary endpoint", "setting": "[2]", "result": "failed to meet the trial's primary endpoint"}]}, {"molecule": "CN(C(=O)c1c(O)c2ccccc2n(C)c1=O)c1ccccc1", "note": "[linomide, linomide (roquinimex)]", "values": [{"measurement": "echocardiogram findings", "setting": "[3]", "result": "signs of valvar heart disease"}, {"measurement": "toxicity leading to termination of development", "setting": "[4]", "result": "cardiovascular toxicity, specifically pleuritis, pericarditis, and chest pain"}]}, {"molecule": "CN1C(=O)/C(=C2/C(=O)Nc3ccccc32)c2ccccc21", "note": "[meisoindigo]", "values": [{"measurement": "fraction of added compound metabolized", "setting": "[5]; microsomes from a healthy normal individual", "result": 99, "unit": "%"}, {"measurement": "metabolism in presence of microsomes", "setting": "[5]; patient blood microsomes", "result": "little to no meisoindigo was metabolized"}]}, {"molecule": "COc1ccc2[nH]c([S+]([O-])Cc3ncc(C)c(OC)c3C)nc2c1", "note": "(stereo not shown) [omeprazole]", "values": [{"measurement": "effect of lead in dose on headaches", "setting": "[6]", "result": "reduce the development of headaches"}]}, {"molecule": "CC(C)c1c(O)cc(/C=C/c2ccccc2)cc1O", "note": "[tapinarof]", "values": [{"measurement": "patients who developed inflammation of the hair follicle (folliculitis)", "setting": "[7]", "result": "Over 20%"}]}]}
